According to patent US20110110891A1, “Methods of Treating Hepatitis C Virus Infection” (priority 2008, published 2011):

Key:
HCV [1] = test: HCV RNA in supernatant of eGFP-Jc1 transfected Huh7.5 cells (qRT-PCR); assay type: cell-based, Hepatitis C virus; settings: 10 μM, Day 3
Protocol: (§1) Day 0: Huh7.5 cells were transfected with an eGFP-Jc1 reporter construct RNA via electroporation (10 μg RNA per 4×10^6 cells). The eGFP-Jc1 reporter construct is a modified version of the Jc1 (J6/C3 chimera) described by Pietschmann et al. (2006) PNAS 103(19): 7408-7413, in which an eGFP (enhanced green fluorescent protein)-IRES (internal ribosomal entry site) cassette has been inserted between the 5′UTR and the open reading frame of the Jc1 construct.
(§2) Transfected cells were then plated at 2×10^6 cells per T75 flask.
(§3) Day 1: The cells were washed 3 times and treated with 10 μl dimethylsulfoxide (DMSO) (control), 10 μM ERK Inhibitor II (FR180204Calbiochem) or 10 μM U0126 (Promega).
(§4) Day 3: The transfected Huh7.5 cells and the supernatant were harvested. The harvested cells and the supernatant were analyzed by quantitative reverse transcription-polymerase chain reaction (qRT-PCR) for levels of HCV RNA
(§5) Viral RNA in culture supernatants was isolated using RNA STAT-50 LS REAGENT (Tel Test). total cellular RNA or 10 μl of RNA of culture supernatant was used for cDNA synthesis using SuperScript III reverse transcriptase (Invitrogen) and random hexamer primers. Viral RNA levels were measured by quantitative real-time PCR using Taqman probes and corresponding primers.

HCV [2] = test: Intracellular HCV RNA in eGFP-Jc1 transfected Huh7.5 cells (qRT-PCR); assay type: cell-based, Hepatitis C virus; settings: 10 μM, Day 3
Protocol: as §1, with “The” for “Day 0: Huh7.5 cells were transfected with an eGFP-Jc1 reporter construct RNA via electroporation (10 μg RNA per 4×10^6 cells). The”
as §2, §3, §4
Total RNA was extracted from transfected cells using RNA STAT-60 REAGENT (Tel Test).
as §5

ERK-2 = ERK-2 (Homo sapiens, UniProt P28482); settings: cited from earlier work
MEK-1 = MEK-1 (Homo sapiens, UniProt Q02750); settings: in vitro; cited from earlier work
ERK = settings: cited from earlier work
PI 3-kinase γ = PI 3-kinase γ (Homo sapiens, UniProt P48736); settings: cited from earlier work
MEK 1/2 = settings: cited from earlier work
cdks = settings: cited from earlier work
Mek = settings: cited from earlier work
c-Src = c-Src (Homo sapiens, UniProt P12931); settings: cited from earlier work
HCV [3] = settings: 10 μM, 1 h pretreatment, anti-CD81 single-round infection
Protocol: Virus: Transfection of Huh7.5 cells with eGFP-Jc1 reporter construct RNA via electroporation (10 μg RNA per 4×10^6 cells)
Harvest virus in the supernatant (Filter & Concentrate using Amicon MWCO 100): conc 10 ml to 200 μl after 3 days
Day 0: Plate Huh7.5 at 1×10^4 cells per well […] (24 well plate)
Day 1: Pretreat cells with 10 μl DMSO or 10 μM U0126 for 1 h
Infection with 50 μl conc. virus per well for 3 h at 37° C.
Addition of 10 μg/ml anti-CD81 antibody (α-CD81) for single-round infection
Day 4: Harvest infected cells for FACS analysis.

Sequence of MEK-1 (Q02750 whole entry, species assumed): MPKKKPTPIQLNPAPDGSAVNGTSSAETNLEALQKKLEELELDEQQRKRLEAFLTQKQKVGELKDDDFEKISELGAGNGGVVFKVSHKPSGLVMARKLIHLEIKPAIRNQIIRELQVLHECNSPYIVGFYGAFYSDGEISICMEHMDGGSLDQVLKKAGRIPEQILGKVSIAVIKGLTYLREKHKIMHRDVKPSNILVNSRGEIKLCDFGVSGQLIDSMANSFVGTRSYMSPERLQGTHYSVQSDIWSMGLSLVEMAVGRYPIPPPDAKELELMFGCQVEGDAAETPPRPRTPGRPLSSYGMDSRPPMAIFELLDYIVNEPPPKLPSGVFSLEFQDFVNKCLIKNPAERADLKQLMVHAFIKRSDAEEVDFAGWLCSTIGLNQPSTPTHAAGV
Sequence of PI 3-kinase γ (P48736 whole entry): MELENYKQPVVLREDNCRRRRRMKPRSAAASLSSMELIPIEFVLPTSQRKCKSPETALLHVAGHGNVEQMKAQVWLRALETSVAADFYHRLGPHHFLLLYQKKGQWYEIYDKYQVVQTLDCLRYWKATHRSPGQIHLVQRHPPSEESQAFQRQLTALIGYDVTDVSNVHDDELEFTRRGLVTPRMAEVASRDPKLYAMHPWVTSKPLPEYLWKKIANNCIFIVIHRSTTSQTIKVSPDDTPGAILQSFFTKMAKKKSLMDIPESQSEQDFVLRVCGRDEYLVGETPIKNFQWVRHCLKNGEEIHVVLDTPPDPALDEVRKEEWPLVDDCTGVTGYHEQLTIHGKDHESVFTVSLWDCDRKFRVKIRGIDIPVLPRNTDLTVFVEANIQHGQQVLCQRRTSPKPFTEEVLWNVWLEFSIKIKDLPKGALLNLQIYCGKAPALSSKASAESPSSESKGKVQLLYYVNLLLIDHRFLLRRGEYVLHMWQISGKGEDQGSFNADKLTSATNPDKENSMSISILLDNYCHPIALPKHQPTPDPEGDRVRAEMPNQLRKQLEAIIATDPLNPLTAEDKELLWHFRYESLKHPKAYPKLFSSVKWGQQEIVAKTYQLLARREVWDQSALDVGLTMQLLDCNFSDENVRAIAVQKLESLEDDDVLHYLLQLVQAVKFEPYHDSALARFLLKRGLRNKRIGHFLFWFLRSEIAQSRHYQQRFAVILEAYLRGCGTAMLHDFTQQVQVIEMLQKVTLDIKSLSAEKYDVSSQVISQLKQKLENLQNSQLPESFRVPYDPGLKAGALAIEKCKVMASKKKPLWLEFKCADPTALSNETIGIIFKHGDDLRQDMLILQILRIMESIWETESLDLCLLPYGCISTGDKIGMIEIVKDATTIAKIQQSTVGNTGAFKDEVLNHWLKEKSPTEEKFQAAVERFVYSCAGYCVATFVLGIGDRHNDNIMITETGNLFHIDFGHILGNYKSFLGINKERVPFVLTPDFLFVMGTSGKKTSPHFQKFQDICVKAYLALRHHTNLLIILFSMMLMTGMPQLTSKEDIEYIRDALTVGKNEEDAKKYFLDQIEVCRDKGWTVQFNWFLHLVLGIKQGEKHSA
Sequence of c-Src (P12931 whole entry, species assumed): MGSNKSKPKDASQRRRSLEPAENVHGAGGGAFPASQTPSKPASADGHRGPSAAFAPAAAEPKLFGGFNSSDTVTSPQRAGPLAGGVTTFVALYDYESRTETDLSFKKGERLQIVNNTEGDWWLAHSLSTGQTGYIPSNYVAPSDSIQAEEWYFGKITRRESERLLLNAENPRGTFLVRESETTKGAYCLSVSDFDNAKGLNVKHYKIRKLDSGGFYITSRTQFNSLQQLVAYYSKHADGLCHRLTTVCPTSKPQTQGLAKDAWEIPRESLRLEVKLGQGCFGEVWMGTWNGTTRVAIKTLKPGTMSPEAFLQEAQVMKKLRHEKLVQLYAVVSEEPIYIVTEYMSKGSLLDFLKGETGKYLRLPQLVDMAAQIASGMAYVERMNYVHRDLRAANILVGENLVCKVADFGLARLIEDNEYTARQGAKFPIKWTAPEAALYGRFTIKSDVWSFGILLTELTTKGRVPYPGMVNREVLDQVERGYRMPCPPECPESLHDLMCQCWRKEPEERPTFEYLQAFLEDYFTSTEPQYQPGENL
Sequence of ERK-2 (P28482 whole entry, species assumed): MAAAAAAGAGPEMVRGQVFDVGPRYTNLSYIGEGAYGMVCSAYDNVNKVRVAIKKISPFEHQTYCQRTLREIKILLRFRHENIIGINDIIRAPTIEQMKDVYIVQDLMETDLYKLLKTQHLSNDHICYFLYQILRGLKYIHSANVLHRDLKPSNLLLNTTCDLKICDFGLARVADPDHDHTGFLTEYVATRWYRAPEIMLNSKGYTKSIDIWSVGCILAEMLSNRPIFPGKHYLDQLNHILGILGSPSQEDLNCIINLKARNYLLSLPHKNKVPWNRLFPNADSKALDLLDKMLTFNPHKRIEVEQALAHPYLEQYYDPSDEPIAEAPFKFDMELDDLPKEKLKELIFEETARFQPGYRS

With `Nc1n[nH]c2nnc(-c3c(-c4ccccc4)nn4ccccc34)cc12` [FR180204, 5-(2-phenylpyrazolo[1,5-a]pyridin-3-yl)-1H-pyrazolo[3,4-c]pyridazin-3-amine] the “decrease in number of HCV copies per ml supernatant compared with control treated cells” value (HCV [1]) was ~50% and the “level of intracellular HCV RNA per μg total RNA” value (HCV [2]) was “increased”.
In the case of `Cc1cc(O)c2c(=O)c3c(O)cc(O)c4c5c(O)cc(O)c6c(=O)c7c(O)cc(C)c8c1c2c(c34)c(c78)c65` [Hypericin], the IC50 (ERK-2) is given as 4 nM.
For `COc1cc(O)c2c(c1)/C=C/C[C@]1(O)C(C=CC(=O)[C@H]1O)[C@H](C)OC2=O` (stereo partly drawn) [L-783,277], the IC50 (MEK-1) is listed as 4 nM.
For `Cc1cc(I)ccc1Nc1c(C(=O)NOCC2CC2)cc(F)c(F)c1F` [PD198306, N-(Cyclopropylmethoxy)-3,4,5-trifluoro-2-[(4-iodo-2-methylphenyl)amino]-benzamide], the IC50 (ERK) is listed as > 1000 nM, the IC50 (PI 3-kinase γ) is listed as > 10000 nM and the “concentration inhibiting isolated enzyme” value (MEK 1/2) is listed as 8 nM. The IC50 (cdks) was > 4000 nM, the “concentrations inhibiting Mek activity in synovial fibroblasts” value (Mek) was 30 to 100 nM and the IC50 (c-Src) was > 4000 nM.
For `COc1cc(O)c2c(c1)/C=C/C[C@@]1(O)C(C=CC(=O)[C@H]1O)[C@H](C)OC2=O` (some centres unmarked) [Ro 09-2210], the IC50 (MEK-1) is given as 60 nM.
With `N#CC(=C(/N)Sc1ccccc1N)/C(C#N)=C(\N)Sc1ccccc1N` [U0126, 1,4-Diamino-2,3-dicyano-1,4-bis(2-aminophenylthio)butadiene] the “viral entry detected by GFP expression” value (HCV [3]) was “HCV entered the cells”, the “HCV copies per ml supernatant relative to supernatant of control treated cells” value (HCV [1]) was “one third” and the “level of intracellular HCV RNA per μg total RNA” value (HCV [2]) was “increased”.
